≈ marks a conversion by molar mass, not a printed value.
Test system: M tb H37Rv
Assay: MIC determination against M tb H37Rv (green fluorescent protein reporter assay; MIC-MABA)
Assay type: cell-based, Mycobacterium tuberculosis
Conditions: Mycobacterium tuberculosis, H37RV, 240 h, read-out: M. TB H37Rv: MIC-MABA: MIC, M. tb H37Rv; 7H9 broth; 10 days exposure; MIC = lowest concentration inhibiting fluorescence by 90%

**Q.** C[C@@H]1[C@@H](NC(=O)c2cc3c(C(F)(F)F)cncc3[nH]2)C[C@H]2C[C@@H]1C2(C)C [MPL-100, 4-(trifluoromethyl)-N-[(1S,2S,3S,5R)-2,6,6-trimethylnorpinan-3-yl]-1H-pyrrolo[2,3-c]pyridine-2-carboxamide] was tested. Which MIC did it give?
**A.** 0.24 µg/mL (≈ 0.657 µM)

**Q.** With CC1(C)C2CCC1(C)C(NC(=O)c1cc3c(F)ccnc3[nH]1)C2 (stereo not shown) [MPL-106, 4-fluoro-N-(1,7,7-trimethylnorbornan-2-yl)-1H-pyrrolo[2,3-b]pyridine-2-carboxamide] as the molecule, how does the MIC read?
**A.** 0.16 µg/mL (≈ 0.507 µM)

**Q.** For CC1(C)C2CCC1(C)C(NC(=O)c1cc3c(C(F)(F)F)ccnc3[nH]1)C2 (stereo not shown) [MPL-108, 4-(trifluoromethyl)-N-(1,7,7-trimethylnorbornan-2-yl)-1H-pyrrolo[2,3-b]pyridine-2-carboxamide], which MIC is on record?
**A.** 0.02 µg/mL (≈ 0.0547 µM)

**Q.** Which MIC does the source give for C[Si]1(C)CCC(NC(=O)c2cc3c(F)ccnc3[nH]2)CC1 [MPL-109, N-(1,1-dimethylsilinan-4-yl)-4-fluoro-1H-pyrrolo[2,3-b]pyridine-2-carboxamide] here?
**A.** 0.022 µg/mL (≈ 0.072 µM)

**Q.** With C[Si]1(C)CCC(NC(=O)c2cc3c(C#N)ccnc3[nH]2)CC1 [MPL-110, 4-cyano-N-(1,1-dimethylsilinan-4-yl)-1H-pyrrolo[2,3-b]pyridine-2-carboxamide] as the molecule, how does the MIC read?
**A.** 0.022 µg/mL (≈ 0.0704 µM)

**Q.** With C[Si]1(C)CCC(NC(=O)c2cc3c(C(F)(F)F)ccnc3[nH]2)CC1 [MPL-111, N-(1,1-dimethylsilinan-4-yl)-4-(trifluoromethyl)-1H-pyrrolo[2,3-b]pyridine-2-carboxamide] as the molecule, how does the MIC read?
**A.** 0.0095 µg/mL (≈ 0.0267 µM)

**Q.** Which MIC does the source give for Cc1cc2cc(C(=O)N[C@H]3C[C@H]4C[C@@H]([C@@H]3C)C4(C)C)[nH]c2c(F)n1 [MPL-122, 7-fluoro-5-methyl-N-[(1S,2S,3S,5R)-2,6,6-trimethylnorpinan-3-yl]-1H-pyrrolo[2,3-c]pyridine-2-carboxamide] here?
**A.** 3.1 µg/mL (≈ 9.41 µM)

**Q.** Cc1cc2cc(C(=O)NC3CCC(C)(C)CC3)[nH]c2cn1 [MPL-125, N-(4,4-dimethylcyclohexyl)-5-methyl-1H-pyrrolo[2,3-c]pyridine-2-carboxamide] was tested. Which MIC did it give?
**A.** 3.1 µg/mL (≈ 10.9 µM)

**Q.** For C[C@@H]1[C@@H](NC(=O)c2cc3cc(Cl)ncc3[nH]2)C[C@H]2C[C@@H]1C2(C)C [MPL-126, 5-chloro-N-[(1S,2S,3S,5R)-2,6,6-trimethylnorpinan-3-yl]-1H-pyrrolo[2,3-c]pyridine-2-carboxamide], which MIC is on record?
**A.** 3.1 µg/mL (≈ 9.34 µM)

**Q.** C[C@@H]1[C@@H](NC(=O)c2cc3cc(F)ncc3[nH]2)C[C@H]2C[C@@H]1C2(C)C [MPL-128, 5-fluoro-N-[(1S,2S,3S,5R)-2,6,6-trimethylnorpinan-3-yl]-1H-pyrrolo[2,3-c]pyridine-2-carboxamide] was tested. Which MIC did it give?
**A.** 2.3 µg/mL (≈ 7.29 µM)

**Q.** Which MIC does the source give for CC1(C)CCC(NC(=O)c2cc3cc(F)ncc3[nH]2)CC1 [MPL-129, N-(4,4-dimethylcyclohexyl)-5-fluoro-1H-pyrrolo[2,3-c]pyridine-2-carboxamide] here?
**A.** 0.5 µg/mL (≈ 1.73 µM)

**Q.** With Cc1nc(F)cc2cc(C(=O)N[C@H]3C[C@H]4C[C@@H]([C@@H]3C)C4(C)C)[nH]c12 [MPL-134, 5-fluoro-7-methyl-N-[(1S,2S,3S,5R)-2,6,6-trimethylnorpinan-3-yl]-1H-pyrrolo[2,3-c]pyridine-2-carboxamide] as the molecule, how does the MIC read?
**A.** 3.1 µg/mL (≈ 9.41 µM)

**Q.** Which MIC does the source give for C[C@@H]1[C@@H](NC(=O)c2cc3c(F)c(Cl)ncc3[nH]2)C[C@H]2C[C@@H]1C2(C)C [MPL-138, 5-chloro-4-fluoro-N-[(1S,2S,3S,5R)-2,6,6-trimethylnorpinan-3-yl]-1H-pyrrolo[2,3-c]pyridine-2-carboxamide] here?
**A.** 2.9 µg/mL (≈ 8.29 µM)

**Q.** For CC1(C)CCC(NC(=O)c2cc3c(F)c(Cl)ncc3[nH]2)CC1 [MPL-139, 5-chloro-N-(4,4-dimethylcyclohexyl)-4-fluoro-1H-pyrrolo[2,3-c]pyridine-2-carboxamide], which MIC is on record?
**A.** 0.24 µg/mL (≈ 0.741 µM)

**Q.** How did the MIC turn out when Cc1ncc2[nH]c(C(=O)N[C@H]3C[C@H]4C[C@@H]([C@@H]3C)C4(C)C)cc2c1F [MPL-140, 4-fluoro-5-methyl-N-[(1S,2S,3S,5R)-2,6,6-trimethylnorpinan-3-yl]-1H-pyrrolo[2,3-c]pyridine-2-carboxamide] was run?
**A.** 1.3 µg/mL (≈ 3.95 µM)

**Q.** How did the MIC turn out when Cc1ncc2[nH]c(C(=O)NC3CCC(C)(C)CC3)cc2c1F [MPL-141, N-(4,4-dimethylcyclohexyl)-4-fluoro-5-methyl-1H-pyrrolo[2,3-c]pyridine-2-carboxamide] was run?
**A.** 0.29 µg/mL (≈ 0.956 µM)

— patent US20230002372A1, “AZAINDOLE CARBOXAMIDE COMPOUNDS FOR THE TREATMENT OF MYCOBACTERIAL INFECTIONS” (THE GLOBAL ALLIANCE FOR TB DRUG DEVELOPMENT, INC., priority 2019, published 2023)
